Entries after “also recorded” stand apart in the source; their conditions may differ.
How the values were obtained:
Type in all cases: cell-based, human
[1] = system: Huh-7PALB-EGFP and immortalized HSC coculture; test: green fluorescence intensity (EGFP reporter under albumin promoter) by fluorescence reader in thioacetamide-damaged co-culture; settings: interferon-α 1000, 5000, 10000 IU/ml added 3 hours before 100 mM thioacetamide; read after 24 hours; two independent experiments, average of 3 wells; FIG. 11B
Procedure: The fluorescence signal expressed from transfected cells of example 5 was observed under a fluorescence microscope, and the fluorescence intensity was analyzed by image analysis software. Fluorescence intensity of EGFP was determined by a fluorescence reader and an fluorescence ELISA reader. The excitation wavelength was 488 nm, and the emission wavelength was 510 nm while the green fluorescence from the EGFP gene was detected. When the red fluorescence from DsRed gene was detected, the excitation wavelength was 558 nm, and the emission wavelength was 583 nm. A flow cytometry (for example, FACSCalibur, Becton Dickinson, Inc.) can also be used to determine the intensity of fluorescence.
Modified human HSCs and Huh-7 cells obtained from examples 1 and 6 were co-cultured via layer by layer culturing. Immortalized human HSCs were cultured in a 24-well culture plate, wherein each well was coated with extracellular matrix before use. The extracellular maxtrix used in the present example was Type I collagen or Matrigel. […]
One day later, 1000, 5000, 10000 IU/ml of interferon-α(F. Hoffman-La Roche, Ltd.) was added into cells respectively. […] In the meantime, the intensity of green fluorescence was determined by a fluorescence reader, and the result is shown in FIG. 11B.

[2] = system: Huh-7PALB-EGFP and immortalized HSC coculture; test: methylene blue assay of cell activity in thioacetamide-damaged co-culture; settings: interferon-α 1000, 5000, 10000 IU/ml added 3 hours before 100 mM thioacetamide; read after 24 hours; FIG. 11A
Procedure: Modified human HSCs and Huh-7 cells obtained from examples 1 and 6 were co-cultured via layer by layer culturing. Immortalized human HSCs were cultured in a 24-well culture plate, wherein each well was coated with extracellular matrix before use. The extracellular maxtrix used in the present example was Type I collagen or Matrigel. Six hours after the HSCs were attached, Huh-7 cells carrying albumin promoter (pLpLhyg-PAlb5/3-EGFP) (Huh-7PALB-EGFP) were subsequently cultured on the top of the attached HSCs.
One day later, 1000, 5000, 10000 IU/ml of interferon-α(F. Hoffman-La Roche, Ltd.) was added into cells respectively. Three hours later, 100 mM of thioacetamide (Sigma-Aldrich, Co.) was added to damage the cells. After 24 hours, methylene blue assay was conducted for analyzing the cell activity. In the meantime, the intensity of green fluorescence was determined by a fluorescence reader, and the result is shown in FIG. 11B.

[3] = system: immortalized hepatocyte THLE-2 and immortalized HSC coculture; test: methylene blue assay of cell activity in thioacetamide-damaged co-culture of normal hepatocytes and HSCs; settings: THLE-2 / HSC co-culture; interferon-α 1000, 5000, 10000 IU/ml added 3 hours before thioacetamide; read after another 24 hours; FIG. 11C
Procedure: To compare the cells in the present example with the normal hepatocytes and HSCs after drug treatment, immortalized human hepatocytes THLE-2 (ATCC NO: CRL-2706, normal primary hepatocytes immortalized by SV40 large T antigen gene) and untransfected human HSCs were co-cultured following procedures described as the above. After 24 hours, 1000,5000,10000 IU/ml of interferon-αwere added. Thioacetamide was applied to damage the cells after 3 hours. After another 24 hours, the cell activity was examined by methylene blue assay, and the result is shown as FIG. 11C. The result corresponds to that of the cell model for drug screening with pLpLhyg-PAlb5/3-EGFP transfected cells (FIG. 11A).

Substance: interferon-α
- effect on damage from thioacetamide, fluorescence intensity expressed by Huh-7PALB-EGFP [1]: decreased the damage from thioacetamide; also recorded: decreased cell damaged by thioacetamide
- effect on damage from thioacetamide, methylene blue assay (cell activity) [2]: decreased the damage from thioacetamide; also recorded: decreased cell damaged by thioacetamide
- effect on damage from thioacetamide, methylene blue assay (cell activity) [3]: decreased the damage from thioacetamide
